Results taken from patent US11690911B2, “Combination of ATR kinase inhibitors and PD-1/PD-L1 inhibitors” (Bayer Pharma Aktiengesellschaft, priority 2017, dated 2023).

Legend:
[1] = test system: murine syngeneic lung carcinoma model KLN205; settings: mouse, in vivo
Procedure: (§1) KLN205) or three (CT26 and MC38 study 1) or only one (MC38 study 2) different combination schedules were tested:
(§2) The oral application volume was 10 ml/kg and the intravenous application volume 5 ml/kg. The time interval between two applications per day was 6-7 h. The tumor size and the body weight were determined three times weekly. Changes in the body weight were a measure of treatment-related toxicity (>10%=critical, stop of treatment until recovery, >20%=toxic, termination). The tumor volume was detected by means of an electronic caliper gauge [0.5×length in mm×(width in mm)^2]. Animals for which the tumor volume exceeded 2000 mm^3 (or for which the mean tumor volume of the group exceeds 2000 mm^3) were euthanized. In vivo anti-tumor efficacy is presented as T/C ratio (Treatment/Control) calculated with tumor volumes at day of control group termination by the formula [(tumor volume of treatment group at day x)−(tumor volume of treatment group at day before first treatment)]/[(tumor volume control group at day x)−(tumor volume of control group at day before first treatment)]. […] Statistical analysis was assessed using SigmaStat software. A one-way analysis of variance was performed and differences to the control were compared by a pair-wise comparison procedure (Dunn's method).

[2] = test system: murine syngeneic colon carcinoma model CT26; settings: mouse, in vivo, po, 50 mg/kg
Procedure: as §1, §2

[3] = test system: murine syngeneic lymphoma model A20; settings: mouse, in vivo, po, 50 mg/kg
Procedure: as §1, §2

Structure (SMILES): C[C@@H]1COCCN1c1cc(-c2ccnn2C)c2ccnc(-c3ccn[nH]3)c2n1 [Compound A, 2-[(3R)-3-methylmorpholin-4-yl]-4-(1-methyl-1H-pyrazol-5-yl)-8-(1H-pyrazol-5-yl)-1,7-naphthyridine]
- Max. weight loss (%) [1]: −19 (d9) %
- body weight loss (in words) [1]: critical body weight loss
- Max. weight loss (%) [2]: −1%
- Max. weight loss (%) [3]: −2%
